# Assay results: US10457707B2, “Substituted urea depsipeptide analogs as activators of the CLPP endopeptidase” (priority 2015, dated 2019)
# *1 amine or outer side, *2 acyl side, *3 side chain or, on linkers, in order; H or OH if unused. Where a SMILES comes first, the peptide text is derived from it. Bridges are numbered along the chain shown (N, C = ends). [ ]: non-standard residue; d: D form. The star is where a group is joined. ξ: configuration not given here. Phe(3,5-F2) = N[C@@H](Cc1cc(F)cc(F)c1)C(=O)O; Pro(4S-Me) = C[C@@H]1CN[C@H](C(=O)O)C1; ξPro(4S-Me) = C[C@@H]1CNC(C(=O)O)C1; NH(4-Me-phenyl) = Cc1ccc(N*)cc1; aThr = C[C@H](O)[C@H](N)C(=O)O; X5 = O=C(C1COCCN1[*:1])[*:2]; Pip = O=C(O)[C@@H]1CCCCN1; CO = O=C([*:1])[*:2]; ξP = O=C(O)C1CCCN1
# Tests used:
# Format in all cases: cell-based
# [1] = test system: Vero (kidney epithelial cells; ATCC CCL-81); assay: Cytotoxicity assay (CellTiter-Glo cell viability, 72 hours); conditions: Vero cells, 72 hours, growth inhibition; read-out: Cytotoxicity IC50
# Procedure, shortened: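 Vero cells, 5000/well, grown overnight at 37° C, 5% CO2 in DMEM with 10% FBS, then exposed to serial compound dilutions or DMSO for 72 hours. Viability read by CellTiter-Glo luminescence. IC50 from duplicate wells, reported as range over two independent experiments.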
# [2] = test system: Streptococcus pyogenes, ATCC 700294; assay: Minimal inhibitory concentration assay (microbroth dilution); conditions: Streptococcus pyogenes, ATCC700294, read-out: Minimal Inhibitory Concentrations S. pyogenes ATCC 700294
# Procedure, shortened: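 CLSI broth microdilution: two-fold serial compound dilutions in appropriate broth, inoculated and incubated aerobically overnight at 37° C. MIC read visually as lowest concentration preventing bacterial growth.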
# [3] = test system: Streptococcus pneumoniae, R6; assay: Minimal inhibitory concentration assay; conditions: read-out: Minimal Inhibitory Concentrations S. pneumoniae R6
# Procedure, shortened: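 Microbroth dilution with two-fold serial compound dilutions in broth, incubated aerobically overnight at 37° C. MIC taken as the lowest concentration preventing bacterial growth.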
# [4] = test system: Staphylococcus aureus, USA 300; assay: Minimal inhibitory concentration assay; conditions: USA300, read-out: Minimal Inhibitory Concentrations S. aureus USA 300
# Procedure, shortened: (§1)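 CLSI broth microdilution; 2-fold series from 200 μM final; inoculum ~10^5 cfu/mL; 37 °C, aerobic, overnight; visual MIC = lowest conc. without growth. The ClpP-inactivated USA 300 strain is the comparator for ClpP-dependent killing.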
# [5] = test system: Staphylococcus aureus, USA 300 wherein ClpP is inactivated; assay: Minimal inhibitory concentration assay
# Procedure, shortened: as §1
# [6] = test system: Staphylococcus aureus, NRS70; assay: Minimal inhibitory concentration assay (microbroth dilution); conditions: Staphylococcus aureus, NRS70, read-out: Minimal Inhibitory Concentrations S. aureus NRS70
# Procedure, shortened: as §1
# [7] = test system: Staphylococcus aureus, ATCC 29213; assay: as above; conditions: ATCC29213, read-out: Minimal Inhibitory Concentrations S. aureus ATCC 29213
# Procedure, shortened: as §1
# [8] = test system: Bacillus subtilis, ATCC 23857; assay: as above; conditions: Bacillus subtilis, ATCC23857, read-out: Minimal Inhibitory Concentrations B. subtilis ATCC 23857
# Procedure, shortened: as §1
# [9] = test system: Enterococcus faecalis, ATCC 33186; assay: as above; conditions: Enterococcus faecalis, ATCC33186, read-out: Minimal Inhibitory Concentrations E. faecalis ATCC 33186
# Procedure, shortened: as §1
Compound,IC50 [1],MIC [2],MIC [3],MIC [4],Minimal Inhibitory Concentrations S. aureus USA 300 ΔClpP [5],MIC [6],MIC [7],MIC [8],MIC [9]
"Cc1ccc(NC(=O)N[C@@H](Cc2cc(F)cc(F)c2)C(=O)N[C@@H]2C(=O)N3CCC[C@H]3C(=O)N3CCCC[C@H]3C(=O)N[C@@H](C)C(=O)N3CCC[C@H]3C(=O)O[C@H]2C)cc1 [Compound 15, (S)-3-(3,5-difluorophenyl)-N-((6S,8aS,14aS,20S,21S,23aS)-6,21-dimethyl-5,8,14,19,23-pentaoxooctadecahydro-1H,5H,14H,19H-pyrido[2,1-i]dipyrrolo[2,1-c:2′,1′-l][1]oxa[4,7,10,13]tetraazacyclohexadecin-20-yl)-2-(3-(p-tolyl)ureido)propanamide] ({NH(4-Me-phenyl)-CO}-[Phe(3,5-F2)][aThr]P[Pip]AP; ester 2-C)",39.7 ± 6.6 µM,0.6 µM,0.3 µM,< 0.1 µM,100 µM,0.3 µM,0.6 µM,< 0.1 µM,0.3 µM
"Cc1ccc(NC(=O)N[C@@H](Cc2cc(F)cc(F)c2)C(=O)N[C@@H]2C(=O)N3CCC[C@H]3C(=O)N3CCCC[C@H]3C(=O)N[C@@H](C)C(=O)N3C[C@@H](C)C[C@H]3C(=O)O[C@H]2C)cc1 [Compound 18, (S)-3-(3,5-difluorophenyl)-2-(3-(p-tolyl)ureido)-N-((2R,6S,8aS,14aS,20S,21S,23aS)-2,6,21-trimethyl-5,8,14,19,23-pentaoxooctadecahydro-1H,5H,14H,19H-pyrido[2,1-i]dipyrrolo[2,1-c:2′,1′-l][1]oxa[4,7,10,13]tetraazacyclohexadecin-20-yl)propanamide] ({NH(4-Me-phenyl)-CO}-[Phe(3,5-F2)][aThr]P[Pip]A[Pro(4S-Me)]; ester 2-C)",26.7 ± 3.6 µM,< 0.1 µM,< 0.1 µM,0.1 µM,100 µM,0.1 µM,0.1 µM,< 0.1 µM,0.8 µM
"Cc1ccc(NC(=O)N[C@@H](Cc2cc(F)cc(F)c2)C(=O)N[C@@H]2C(=O)N3CCCC3C(=O)N3CCOCC3C(=O)N[C@@H](C)C(=O)N3C[C@@H](C)CC3C(=O)O[C@H]2C)cc1 (stereo partly drawn) [Compound 33, (S)-3-(3,5-difluorophenyl)-2-(3-(p-tolyl)ureido)-N-((6aS,12S,13S,15aS,17S,21S,23aS)-13,17,21-trimethyl-6,11,15,20,23-pentaoxooctadecahydro-6H,11H,15H-[1,4]oxazino[3,4-i]dipyrrolo[2,1-c:2′,1′-l][1]oxa[4,7,10,13]tetraazacyclohexadecin-12-yl)propanamide] ({NH(4-Me-phenyl)-CO}-[Phe(3,5-F2)][aThr][ξP][X5]A[ξPro(4S-Me)]; ester 2-C)",41 ± 4.3 µM,0.39 µM,0.098 µM,0.2 µM,200 µM,0.1 µM,0.2 µM,0.2 µM,–
"Cc1ccc(NC(=O)N[C@@H](Cc2ccccc2)C(=O)N[C@H]2COC(=O)C3C[C@H](C)CN3C(=O)[C@H](C)NC(=O)C3CCCCN3C(=O)C3CCCN3C2=O)cc1 (stereo partly drawn) [Compound 43, (S)—N-((2S,6S,8aS,14aS,20S,23aS)-2,6-dimethyl-5,8,14,19,23-pentaoxooctadecahydro-1H,5H,14H,19H-pyrido[2,1-i]dipyrrolo[2,1-c:2′,1′-l][1]oxa[4,7,10,13]tetraazacyclohexadecin-20-yl)-3-phenyl-2-(3-(p-tolyl)ureido)propanamide]",74.5 ± 8.8 µM,0.8 µM,0.2 µM,3.1 µM,>200 µM,1.6 µM,1.6 µM,0.4 µM,–
